Marks after values point to notes of the source that are not given here.
Legend:
[1] = system: Antibiotika-induzierte Kolitis in Hamstern; assay: Antibiotic (clindamycin)-induced colitis in hamsters, in vivo; parameters: species or system syrischen Hamstern (LUG)
Description: Man verabreicht männlichen, 80-120 g schweren syrischen Hamstern (LUG) eine einmalige Dosis von 175 mg/kg Clindamycin-phosphat oder Clindamycin-hydrochlorid intraperitoneal, um eine Kolitis zu induzieren. Ungefähr 7 Stunden nach dieser Injektion verabreicht man den Tieren die zu testende Verbindung oral oder intraperitoneal. Während einer Periode von 4 weiteren Tagen wird diese Therapie zweimal täglich wiederholt. Für die orale Verabreichung wurde die zu testende Verbindung in Wasser suspendiert oder in Dimethylsulfoxid gelöst und mittels einer Magensonde verabreicht. Der Effekt der Therapie wurde durch das sogenannte "Hazard"-Verhältnis bestimmt. Es handelt sich dabei um das Verhältnis der Sterblichkeitsrate von Tieren, welche mit der zu testenden Verbindung behandelt worden sind, im Vergleich zu den Tieren, welche nur mit Vehikel behandelt worden sind. Die Sterblichkeitsrate wurde zweimal täglich bestimmt und wurde durch Vergleich der Ueberlebenskurven für jede Gruppe ausgewertet. Für jede Gruppe von Versuchstieren wurde die Kaplan-Meier-Schätzung der Ueberlebenskurve berechnet, und es wurde der Mantel-Cox-Test verwendet, um die Ueberlebenskurve der mit Inhibitor behandelten Gruppe mit derjenigen der nur mit Vehikel behandelten Gruppe zu vergleichen. Ein Hazard-Verhältnis von 1,0 bedeutet, dass der Effekt der Therapie nicht besser ist, als derjenige der mit dem Vehikel allein erzielt wird, währenddem ein Hazard-Verhältnis (>1.0) bedeutet, das die Therapie die Ueberlebensrate im Vergleich zu derjenigen Gruppe, welche nur mit dem Vehikel behandelt worden ist, verbessert.

LTC₄ = assay: Rat colon mucosa in vitro (Ussing short-circuit technique), LTC₄-induced electrolyte secretion; assay type: cell-based, Ratte; details: 6 animals
Excerpt: (§1) Das Bioassay-System des Versuches mit der Mucosa des Rattenkolons basiert auf der Messung der durch Absorption oder Sekretion bewirkten Aenderungen im Salztransport durch das tierische Gewebe, wobei man die durch Ussing et al. beschriebene Standard-Kurzschluss-Technik verwendet, Acta Physiol. Scand. 23, 110-127 (1951). Diarrhö ist das häufigste Symptom bei gastrointestinalen Entzündungen und tritt bei allen Typen der Enteritis auf. Pantera, et al., Ital. J. Gastroenterol. 13: 24-27 (1981); Sales, et al., Arch. Int. Med. 143: 294-299 (1983); Hodgson, Br. J. Clin. Pharmac. 14: 159-270 (1982). Diarrhö wird durch eine Abnahme in der Salzabsorption oder eine Zunahme in der Salzsekretion im Darm bewirkt und kann durch die oben erwähnte Methode von Ussing et al. in vitro quantifiziert werden. Man entfernt von 200-250 g schweren Tieren ein 1 cm langes Segment des Kolons, behandelt dieses in vitro mit Leukotrienen oder Bradykinin, welche die Salzsekretion fördern, und misst die erhaltene Aenderung im Netto-Salztransport, welche in Gegenwart und in Abwesenheit von 6-Acetyl-7-[5-(4-acetyl-3-hydroxy-2-propylphenoxy)pentyloxy] -3,4-dihydro-2H-1-benzopyran-2-carbonsäure als Hemmer erhalten wird. Gewebeproben werden paarweise in Ussing-Kammern befestigt und mit automatischen Spannungsklemmen (von der University of Iowa Bioengineering Department) kurzgeschlossen. […]

[2] = system: Carrageenin-induzierte Colitis in Meerschweinchen; assay: Carrageenin-induced colitis in guinea pigs, in vivo (water transport in distal colon); parameters: species or system Meerschweinchen (Hartley); details: 10 bzw. 30 mg/kg oral; Figur 5
Excerpt: Der Carrageenin-induzierte-Colitis-Bioassay an Meerschweinchen ist durch A. B. Onderdonk in Inflammatory Bowel Diseases, Martinus Nijhoff Publ., Boston, Massachusetts, Seiten 126-134 (1982) und in Human Intestinal Microflora in Health and Disease (D. J. Hentger. ed), Academic Press, New York, 1983, Seiten 447-479 beschrieben worden. Das aus Rotalgen herstammende Polysaccharid Jotacarrageenin bewirkt in Meerschweinchen eine Colitis, welche der ulcerativen Colitis im Menschen ähnlich ist. Männliche und weibliche, 400-650 g Meerschweinchen (Hartley) erhielten via Trinkwasser täglich eine 3-proz. Lösung von abgebautem Carrageenin. Nach etwa 7 Tagen begannen die Versuchstiere eine Diarrhö zu entwickeln, nahmen an Gewicht nicht mehr zu und wurden lethargisch. Nachdem die Versuchstiere während 14 Tagen auf diese Weise Carrageenin verabreicht erhielten, wurde die Diarrhö quantifiziert, und zwar durch Messung des Wassertransportes in den distalen Teil des Kolons durch einfache Pass-Perfusion unter Verwendung von 14C-Polyäthylenglykol 4000 (PEG 4000) als Marker. Kontrolltiere erhielten eine wässrige Trinklösung, enthaltend 3-proz. mannitol anstelle des Carrageenins. Gleichzeitig wurden zufällig ausgewählte Versuchstiere aus diesen beiden Gruppen zweimal täglich mit der Testsubstanz oral behandelt.

Bradykinin = assay: Rat colon mucosa in vitro (Ussing short-circuit technique), bradykinin-induced secretion; assay type: cell-based, Ratte; details: Figur 1; result in words
Excerpt: as §1

LTD₄ = assay: Rat colon mucosa in vitro (Ussing short-circuit technique), LTD₄-induced electrolyte secretion; assay type: cell-based, Ratte; details: 6 animals
Excerpt: as §1

LTE₄ = assay: Rat colon mucosa in vitro (Ussing short-circuit technique), LTE₄-induced electrolyte secretion; assay type: cell-based, Ratte; details: 6 animals
Excerpt: as §1

LTB₄ = assay: Rat colon mucosa in vitro (Ussing short-circuit technique), LTB₄-induced electrolyte secretion; assay type: cell-based, Ratte; details: 6 animals
Excerpt: as §1

[3] = system: Essigsäure-induzierte Colitis in Ratten; assay: Acetic acid-induced colitis in rats, in vivo (myeloperoxidase in colon mucosa); parameters: species or system Ratten (Sprague-Dawley)
Excerpt: Der Essigsäure-induzierte-Colitis-Bioassay an Ratten ist durch J.E. Krawisz et al. in Amer. J. Proc. Gastro. Col. Rec. Surg. 31, 11-18 (1980) und P. Sharon und W.F. Stenson in Gastroenterology 88, 55-63 (1985) und 86, 453-460 (1984) beschrieben worden. Die Essigsäure-induzierte Colitis ist durch eine Wanderung von Entzündungszellen in das Kolon charakterisiert. Die Anzahl derartiger Zellen in der Mucosa kann bestimmt werden, indem man die Aktivität der Myeloperoxidase, einem Marker-Enzym für diese Zellen, misst. Eine positive gewünschte Wirkung zeigt sich in einer Reduktion des hohen Myeloperoxidase-Spiegels, der durch die Essigsäure verursacht wird. Männliche, 150-300 g schwere Ratten (Sprague-Dawley) werden während 2 Tagen, zweimal täglich entweder mit dem Vehikel (Wasser oder Dimethylsulfoxid) oder der im Wasser suspendierten oder in Dimethylsulfoxid gelösten Testsubstanz oral vorbehandelt. Am 3. Tag behandelt man die Tiere noch einmal wie an den beiden Vortagen, anästhetisiert mit Metofan, injiziert 2 ml 2,5-proz. Essigsäure mittels einer Spritze in das Lumen des Kolons und unmittelbar danach 3 ml Luft und eine Spüllösung, bestehend aus 3 ml Phosphat-gepufferter Kochsalzlösung, […] genügend lange im Lumen, um eine Entzündung zu induzieren, ohne jedoch schwere Nekrose oder irreversible Schäden zu bewirken). […]

[4] = 10 mg/kg intraperitoneal in 0,075 ml PEG-400, twice daily, >1.0 = survival better than vehicle
[5] = 10 mg/kg oral in 0,15 ml Wasser, twice daily
[6] = Inhibitor Konzentration 1 Mikromol
[7] = Inhibitor Konzentration 10 Mikromol

CCCc1c(OCCCCCOc2cc3c(cc2C(C)=O)CCC(C(=O)OC)O3)ccc(C(C)=O)c1O (racemic) [6-Acetyl-7-[5-(4-acetyl-3-hydroxy-2-propylphenoxy)pentyloxy]-3,4-dihydro-2H-1-benzopyran-2-carbonsäure-methylester]
Hazardverhältnis ([1]; 20 µMol/kg oral (Tabelle 3)): 3,42

CCCc1c(OCC(O)COc2ccc3c(=O)cc(C(=O)O)oc3c2CCC)ccc(C(C)=O)c1O (stereo not drawn) [Vergleichssubstanz 1, 7-[-3-(4-Acetyl-3-hydroxy-2-propyl-phenoxy)-2-hydroxypropoxy] -4-oxo-8-propyl-4H-1-benzopyran-2-carbonsäure, reference compound]
Hazardverhältnis [1, 4]: 2,02^c
Hazardverhältnis [1, 5]: 1,42
Activity against antibiotic-induced colitis ([1]; oral 10 mg/kg): inaktive

CCCc1c(OCCCCCOc2cc3c(cc2C(C)=O)CCC(C(=O)O)O3)ccc(C(C)=O)c1O (racemic) [6-Acetyl-7-[5-(4-acetyl-3-hydroxy-2-propylphenoxy)pentyloxy] -3,4-dihydro-2H-1-benzopyran-2-carbonsäure]
% Inhibition gegen Leukotriene LTC₄ (LTC₄; [6]): 9,5±19,2%
% Inhibition gegen Leukotriene LTC₄ (LTC₄; [7]): 57,1+19,7%
Wassertransport-Raten [2]: praktisch gleich waren, wie diejenigen der Kontroll-Versuchstiere
sekretorische Aktivität von Bradykinin (Bradykinin): reduzieren
% Inhibition gegen Leukotriene LTD₄ (LTD₄; [6]): 30,8±15,4%
% Inhibition gegen Leukotriene LTD₄ (LTD₄; [7]): 62,4±10,0%
% Inhibition gegen Leukotriene LTE₄ (LTE₄; Inhibitor Konzentration 1 Mikromol (µM)): 29,8±15,0%
% Inhibition gegen Leukotriene LTE₄ (LTE₄; Inhibitor Konzentration 10 Mikromol (µM)): 44,2± 9,8%
% Inhibition gegen Leukotriene LTB₄ (LTB₄; [6]): 44,4±13,1%
% Inhibition gegen Leukotriene LTB₄ (LTB₄; [7]): 69,6±11,9%
Hazardverhältnis [1, 4]: 2,87
Hazardverhältnis [1, 5]: 3,80
Hazardverhältnis ([1]; 60 mg/kg intraperitoneal in 0,075 ml PEG-400, twice daily): 4,77
Hazardverhältnis ([1]; 60 mg/kg oral in 0,15 ml Wasser, twice daily): 12,0
Hazardverhältnis ([1]; 100 mg/kg oral in 0,15 ml Wasser, twice daily): 64,2
Hazardverhältnis ([1]; 20 µMol/kg oral (Tabelle 3)): 1,45
Histopathological effects on cecum and colon (oedema, bleeding, necrosis, erosions, inflammatory cell infiltration) ([1]; 60 oder 100 mg/kg, in most cases): reduziert oder gänzlich zum Verschwinden gebracht
Activity against antibiotic-induced colitis ([1]; oral doses 10 bis 100 mg/kg): aktiv
Diarrhö ([1]; result in words): reduzierte
Histopathologie des Cecums und des Kolons ([1]; result in words): verbesserte in einem beträchtlichen Ausmass
Ueberlebensrate der mit Clidamycin behandelten Tiere ([1]; result in words): erhöht
Activity (reduction of myeloperoxidase level caused by acetic acid) ([3]; oral 30 und 90 mg/kg, Figur 3): aktiv

CCCc1c(OCCCOc2ccc3c(=O)cc(CCCC(=O)O)oc3c2CCC)ccc(C(C)=O)c1O [Vergleichssubstanz 2, 7-[3-(4-Acetyl-3-hydroxy-2-propylphenoxy)propoxy]-4-oxo-8-propyl-4H-1-benzopryran-2-propancarbonsäure, reference compound]
Hazardverhältnis ([1]; 13 mg/kg oral in 0,15 ml Wasser, twice daily): 1,68
Activity against antibiotic-induced colitis ([1]; oral 10 mg/kg): inaktive

6-Acetyl-7-[5-(4-acetyl-3-hydroxy-2-propylphenoxy)pentyloxy]-3,4-dihydro-2H-1-benzopyran-2-carbonsäure-hexylesters
Hazardverhältnis ([1]; 20 µMol/kg oral (Tabelle 3)): 1,64

O=C1CCN(c2ccccc2)N1 [Phenidon, reference compound]
Activity (reduction of myeloperoxidase level caused by acetic acid) ([3]; oral 100 und 200 mg/kg, Figur 2): aktiv

— EP0256532B1, “Use of dihydrobenzopyrane derivatives” (F. HOFFMANN-LA ROCHE AG, priority 1986, dated 1988)
